From patent US20220218732A1, “Selective Inhibitors Of Protein Arginine Methyltransferase 5 (PRMT5)” (Prelude Therapeutics, Incorporated, priority 2019, published 2022)
Counter-ions that a name gives are not always drawn. Like-named read-outs stand apart in the source and are kept apart here.

What was measured:
PRMT5/MEP50 complex = PRMT5/MEP50 complex (Homo sapiens, UniProt O14744); test: Biochemical assay: PRMT5/MEP50 methylation of histone H2A with 3H-SAM, filter plate scintillation
Protocol: Compounds were solubilized, and 3-fold diluted in 100% DMSO. […] Standard reactions were performed in a total volume of 50 μl in assay buffer, with histone H2A (5 μM final) as substrate. To this was added the PRMT5/MEP50 complex diluted to provide a final assay concentration of 5 nM and the compounds were allowed to preincubate for 15 to 20 minutes at room temperature. The reaction was initiated by adding S-[3H-methyl]-adenosyl-L-methionine (PerkinElmer) to final concentration of 1 μM. Following a 60 minutes incubation at 30° C., the reaction was stopped by adding 100 μL of 20% TCA. Each reaction was spotted onto filter plate (MultiScreen FB Filter Plate, Millipore), and washed 5 times with PBS buffer, Scintillation fluid was added to the filter plate and read in a scintillation counter. IC50 values were determined by fitting the data to the standard 4 parameters with Hill Slope using GraphPad Prism software.

[1] = Rat non-crossover cassette PK study of Example 36; type: in vivo; settings: rat SD male non-fasted, 2 mg/kg p.o.
Protocol: In a rat (SD, male, non-fasted) non-crossover cassette PK study, Example 36 was dosed at 0.25 mg/kg via i.v. administration (N=3) and 2 mg/kg via oral gauge (p.o.) (N=3) with other 3 compounds.

[2] = Rat non-crossover PK study of Example 92; type: in vivo
Protocol: In a rat (SD, male, non-fasted) non-crossover PK study, Example 92 was dosed at 1 mg/kg (DMA: 20% HPBCD=5:95, solution) via i.v. administration (N=2) and 1 mg/kg (0.5% Na CMC+0.5% Tween80, solution) via oral gauge (p.o.) (N=2).

[3] = system: Type II Collagen-Induced Arthritis (CIA) in female Lewis rats; test: Rat type II collagen-induced arthritis (CIA) model; type: in vivo; settings: 15 mg/kg PO QD
Protocol: Female Lewis rats were injected intradermally/subcutaneously (ID/SC) with porcine type II collagen to induce arthritis on Study Days 0 & 7. Rats were then dosed once daily (QD) on Study Days 0-24 (developing) or Days 6-24 (semi-established) by the oral (PO) route with Example 92 (15 mg/kg) or vehicle (0.5% Na CMC+0.5% Tween80, suspension). Rats were euthanized for necropsy on Study Day 25. Efficacy evaluation was based daily ankle diameter caliper measurements, terminal hind paw weights, and histopathology of ankles and knees.

[4] = system: Symmetric Di-Methyl Arginine (sDMA) marks in Granta-519 cell line; test: Cellular assay: Western blot of sDMA (SmD3me2s) and H3R8me2s marks in Granta cells, 3 days, IC50; type: cell-based; settings: Homo sapiens, 72 h, Table 7
[5] = developing mode (Days 0-24), P<0.001

Sequence of PRMT5/MEP50 complex (O14744 whole entry, species assumed): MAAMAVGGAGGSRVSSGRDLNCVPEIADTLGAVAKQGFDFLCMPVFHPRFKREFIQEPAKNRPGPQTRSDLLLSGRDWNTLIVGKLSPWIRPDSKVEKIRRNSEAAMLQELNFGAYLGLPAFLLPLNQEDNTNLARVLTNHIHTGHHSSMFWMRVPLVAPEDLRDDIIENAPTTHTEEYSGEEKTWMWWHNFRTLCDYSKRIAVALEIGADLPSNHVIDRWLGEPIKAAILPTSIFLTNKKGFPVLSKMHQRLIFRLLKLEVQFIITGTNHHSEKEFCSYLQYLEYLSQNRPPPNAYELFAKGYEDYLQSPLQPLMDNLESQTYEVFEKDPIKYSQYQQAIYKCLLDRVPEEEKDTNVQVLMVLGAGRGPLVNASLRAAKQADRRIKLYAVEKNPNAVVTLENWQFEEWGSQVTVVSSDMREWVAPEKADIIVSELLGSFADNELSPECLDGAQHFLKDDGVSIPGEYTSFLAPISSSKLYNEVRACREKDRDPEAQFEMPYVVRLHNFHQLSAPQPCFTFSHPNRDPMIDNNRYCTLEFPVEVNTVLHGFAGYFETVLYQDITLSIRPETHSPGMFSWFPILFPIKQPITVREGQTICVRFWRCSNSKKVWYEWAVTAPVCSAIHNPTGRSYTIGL
Sequence of PRMT5/MEP50 complex (Q9BQA1 whole entry partner, species assumed): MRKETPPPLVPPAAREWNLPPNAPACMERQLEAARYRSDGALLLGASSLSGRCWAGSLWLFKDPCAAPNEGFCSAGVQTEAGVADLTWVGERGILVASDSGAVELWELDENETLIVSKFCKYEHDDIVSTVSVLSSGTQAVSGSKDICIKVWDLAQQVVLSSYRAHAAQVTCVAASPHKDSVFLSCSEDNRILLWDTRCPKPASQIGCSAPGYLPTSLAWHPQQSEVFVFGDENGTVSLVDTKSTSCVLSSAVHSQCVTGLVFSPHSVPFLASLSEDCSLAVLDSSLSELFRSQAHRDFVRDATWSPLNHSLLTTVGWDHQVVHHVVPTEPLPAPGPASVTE

C[C@@H](c1ccc(Cl)cc1)[C@H]1O[C@@H](n2ccc3c(N)ncnc32)[C@H](O)[C@@H]1O [Example 5-C, (2R,3R,4S,5R)-2-(4-amino-7H-pyrrolo[2,3-d]pyrimidin-7-yl)-5-((S)-1-(4-chlorophenyl)ethyl)tetrahydrofuran-3,4-diol hydrochloride]
IC50 (PRMT5/MEP50 complex; Table 9, compounds of Formula V and Formula VI, read-out: PRTMT5/MEP50 IC50): 0.037 µM

CO/N=c1/nc[nH]c2c1ccn2[C@@H]1O[C@H]([C@H](O)c2ccc(Cl)cc2)[C@@H](O)[C@H]1O [Example 36, (2R,3S,4R,5R)-2-[(R)-(4-chlorophenyl)-hydroxy-methyl]-5-(-4-methoxyimino-1H-pyrrolo[2,3-d]pyrimidin-7-yl]tetrahydrofuran-3,4-diol]
average dose normalized AUC [1]: 1738 ng·kg·h/mL/mg

C[C@@](O)(c1ccc(Cl)c(Cl)c1)[C@H]1O[C@@H](n2cnc3c(N)ncnc32)[C@H](O)[C@@H]1O [Example 1-C, (2R,3R,4S,5S)-2-(6-amino-9H-purin-9-yl)-5-((R)-1-(3,4-dichlorophenyl)-1-hydroxyethyl)tetrahydrofuran-3,4-diol]
metabolite in blood samples ([2]; rat, after dosing of Example 92): detected | average of AUC0-int of metabolite ([2]; rat, metabolite after dosing of Example 92): 284 ng·kg·h/mL/mg

CO/N=c1\[nH]cnc2c1ncn2[C@@H]1O[C@H]([C@](C)(O)c2ccc(Cl)c(Cl)c2)[C@@H](O)[C@H]1O [Example 92, (2S,3S,4R,5R)-2-[(1R)-1-(3,4-dichlorophenyl)-1-hydroxy-ethyl]-5-[(6Z)-6-methoxyimino-1H-purin-9-yl]tetrahydrofuran-3,4-diol]
histopathology parameters in ankles and knees ([3]; both modes, versus vehicle controls): significantly inhibited all histopathology parameters | reduction in ankle diameter [3, 5]: 63% | reduction in hind paw weight [3, 5]: 67% | reduction in hind paw weight ([3]; semi-established mode (Days 6-24), P<0.01): 51% | reduction in ankle diameter ([3]; semi-established mode (Days 6-24), P<0.05): 34% | average dose normalized AUC0-inf ([2]; rat SD male non-fasted, 1 mg/kg p.o.): 2184 ng·kg·h/mL/mg

CCO/N=c1\nc[nH]c2c1ccn2[C@@H]1OC([C@](C)(O)c2ccc(Cl)cc2)[C@@H](O)[C@H]1O (stereo partly drawn) [Example 83, 7-((2R,3R,4S)-5-((R)-1-(4-chlorophenyl)-1-hydroxyethyl)-3,4-dihydroxytetrahydrofuran-2-yl)-1,7-dihydro-4H-pyrrolo[2,3-d]pyrimidin-4-one O-ethyl oxime]
IC50 [4]: 0.097 µM | IC50 (PRMT5/MEP50 complex; Table 7, histone H2A substrate, 5 nM enzyme, read-out: PRMT5/MEP50 IC50): 0.0291 µM

CO/N=c1\nc[nH]c2c1ccn2[C@@H]1O[C@H]([C@H](O)c2ccc(Cl)c(Cl)c2)[C@@H](O)[C@H]1O [Example 69, 7-((2R,3R,4S,5R)-5-((R)-(3,4-dichlorophenyl)(hydroxy)methyl)-3,4-dihydroxytetrahydrofuran-2-yl)-1,7-dihydro-4H-pyrrolo[2,3-d]pyrimidin-4-one O-methyl oxime hydrochloride]
IC50 [4]: 0.028 µM
